Test results as given in ChEMBL document CHEMBL5729163, “Substituted cyclohexyl compounds as NOP inhibiiors” (2022).

Each compound was assayed against Nociceptin receptor (Homo sapiens, UniProt P41146) (assay: Cell-Based NOP Assay: Formula (I) compounds were tested for antagonism of the nociceptin receptor (NOP) in a cell-based cAMP assay, using the LANCE cAMP Detection Kit, Perkin Elmer (Waltham, Mass.). This assay (LANCE cAMP) is a homogeneous, time-resolved fluorescence resonance energy transfer (TR-FRET) immunoassay designed to measure cAMP produced upon modulation of adenylyl cyclase activity by G protein-coupled receptors (GPCRs).ProtocolCells expressing human opioid NOP (ValiScreen cell line, cat #ES-230-C Perkin Elmer (Waltham, Mass.) were dispensed in simulation buffer (5 mM Hepes, 0.1% BSA, 0.5 mM IBMX in Hanks Buffered Saline Solution) at 2.5 μL cells per well (400 cells/well) into a 1536 white TC-treated assay plate. Compound was then added and plates were incubated for 15 minutes at room temperature. To each well was added 2.5 μL of a solution containing forskolin (3 μM final) and nociceptin peptide (390 pM final) diluted in stimulation buffer, and the plates were incubated for 30 minutes at room temperature. To each well was dispensed 5 μL of LANCE Ultra detection (1:300 dilution of anti-cAMP ULight with a 1:100 dilution of Eu-cAMP tracer diluted in cAMP Detection Buffer) reagent, and the plates were incubated for 1 hr at room temperature. The plate was then read on the ViewLux microplate reader (Perkin Elmer, Waltham, Mass.) using the LANCE 1536 protocol with 60 second exposure times and 50 μs delay. This protocol has an excitation wavelength of 340 nm (DUG11 filter) and emission wavelengths of 615 nm (Eu-Donor) and 665 nm (Alexa 647 cAMP antibody acceptor).Data AnalysisData was analyzed, normalized, and visualized using ACAS (John McNeil & Co.). Efficacy was calculated using activity of the vehicle (DMSO) as 0% efficacy and the activity of the corresponding reference positive control (SCH 221510, Tocris Bioscience (Pittsburgh, Pa.), Catalog number 3240) as 100% efficacy. Activity was calculated as the ratio of donor and acceptor emissions. All curve fits and IC50 determinations were performed using a non-linear regression model. The IC50 value was measured as the concentration at which half-maximal response was calculated.).
Sequence of Nociceptin receptor (P41146 whole entry): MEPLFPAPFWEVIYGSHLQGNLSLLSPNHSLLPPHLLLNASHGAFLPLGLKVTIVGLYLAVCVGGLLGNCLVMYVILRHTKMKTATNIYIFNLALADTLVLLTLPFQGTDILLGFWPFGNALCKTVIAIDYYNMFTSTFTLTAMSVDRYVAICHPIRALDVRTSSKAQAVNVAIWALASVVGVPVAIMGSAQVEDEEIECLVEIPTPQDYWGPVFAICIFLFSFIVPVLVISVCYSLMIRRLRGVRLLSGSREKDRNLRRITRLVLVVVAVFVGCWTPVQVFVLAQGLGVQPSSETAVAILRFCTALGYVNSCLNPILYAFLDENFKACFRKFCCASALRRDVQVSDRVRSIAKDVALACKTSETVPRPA

| SMILES | IC50 [nM] |
| --- | --- |
| Cc1cc(F)ccc1C1CCC(CCNC2(C)CCCC2)CC1 (configuration not stated) | 10 to 100 |
| NC(=O)C1(NCC[C@H]2CC[C@H](c3cccc(F)c3Cl)CC2)CCOCC1 | 100 to 1000 |
| COCC1(NCCC2CCC(c3cc(F)ccc3Cl)CC2)CCOCC1 (configuration not stated) | 10 to 100 |
| Clc1cccnc1C1CCC(CCNC2CCCCC2)CC1 (configuration not stated) | 100 to 1000 |
| COCC1(NCCC2CCC(c3c(F)cccc3Cl)CC2)CCOCC1 (configuration not stated) | 10 to 100 |
| Fc1ccc(C2CCC(CCN[C@H]3CC[C@@H](F)C3)CC2)c(Cl)c1 (some centres not stated) | < 1 |
| Cc1cnccc1C1CCC(CCNC2CCOCC2)CC1 (configuration not stated) | 100 to 1000 |
| NC(=O)C1(NCCC2CCC(c3cc(F)ccc3Cl)CC2)CCCC1 (configuration not stated) | 100 to 1000 |
| CCNC(=O)C1(NCC[C@H]2CC[C@H](c3ncc(F)cc3Cl)CC2)CCOCC1 | 10 to 100 |
| NC(=O)C1(NCC[C@H]2CC[C@H](c3ccc(F)cc3C(F)(F)F)CC2)CCOCC1 | 10 to 100 |
| Cc1nccnc1[C@H]1CC[C@@H](CCNC2CCOCC2)CC1 | 100 to 1000 |
| Cc1cccnc1C1CCC(CCNC2(C)CCCC2)CC1 (configuration not stated) | 100 to 1000 |
| Fc1ccc([C@H]2CC[C@H](CCNC3CCOCC3)CC2)c(F)c1 | 1 to 10 |
| NC(=O)C1(NCC[C@H]2CC[C@H](c3c(F)cc(F)cc3Cl)CC2)CCOCC1 | 1 to 10 |
| NC(=O)C1(NCC[C@H]2CC[C@@H](c3ccc(F)cc3Cl)CC2)CCCC1 | 10 to 100 |
| Cc1cccnc1[C@H]1CC[C@@H](CCNC2CCOCC2)CC1 | 10 to 100 |
| Oc1cccc([C@H]2CC[C@@H](CCNC3CCOCC3)CC2)c1 | 100 to 1000 |
| CN1CCC(NCCC2CCC(c3ncc(F)cc3Cl)CC2)CC1 (configuration not stated) | 100 to 1000 |
| Cc1cc(F)ccc1[C@H]1CC[C@@H](CCNC2(C(N)=O)CCOCC2)CC1 | 1 to 10 |
| NC(=O)C1(NCC[C@H]2CC[C@H](c3ccc(F)cc3F)CC2)CCOCC1 | 100 to 1000 |
| O=C1NCCC1NCC[C@H]1CC[C@@H](c2ccc(F)cc2Cl)CC1 (some centres not stated) | 1 to 10 |
| Cc1cc(F)c(F)cc1[C@H]1CC[C@H](CCNC2(C(N)=O)CCOCC2)CC1 | 100 to 1000 |
| CN(C)C(=O)C1(NCC[C@H]2CC[C@@H](c3ccc(F)cc3Cl)CC2)CCCC1 | 100 to 1000 |
| COCC1(NCC[C@H]2CC[C@@H](c3ccc(F)cc3Cl)CC2)CCNC(=O)C1 (some centres not stated) | 10 to 100 |
| COCC1(NCCC2CCC(c3ccccc3Cl)CC2)CCOCC1 (configuration not stated) | 10 to 100 |
| CC1(NCCC2CCC(c3ncccc3Cl)CC2)CCCC1 (configuration not stated) | 100 to 1000 |

| SMILES | IC50 [nM] |
| --- | --- |
| Cc1cccnc1[C@H]1CC[C@H](CCNC2CCOCC2)CC1 | 100 to 1000 |
| Fc1cccc(Cl)c1[C@H]1CC[C@@H](CCNC2CCOCC2)CC1 | < 1 |
| Fc1cnc([C@H]2CC[C@H](CCNC3CCOCC3)CC2)c(Cl)c1 | 1 to 10 |
| Fc1cccc(Cl)c1C1CCC(CCNC2CCCCC2)CC1 (configuration not stated) | 1 to 10 |
| CNC(=O)C1(NCCC2CCC(c3ccc(Cl)cc3F)CC2)CCCC1 (configuration not stated) | 100 to 1000 |
| CC1(NCC[C@H]2CC[C@H](c3ncc(F)cc3Cl)CC2)CCNC(=O)C1 (some centres not stated) | 10 to 100 |
| NC(=O)C1(NCCC2CCC(c3ccccc3Cl)CC2)CCCC1 (configuration not stated) | 100 to 1000 |
| COCC1(NCCC2CCC(c3ncc(F)cc3Cl)CC2)CCOCC1 (configuration not stated) | 100 to 1000 |
| CN1CCC(NCCC2CCC(c3ccc(Cl)cc3F)CC2)CC1 (configuration not stated) | 100 to 1000 |
| Cc1cc(F)cc(F)c1[C@H]1CC[C@H](CCNC2(C(N)=O)CCOCC2)CC1 | 1 to 10 |
| Cc1ccncc1[C@H]1CC[C@H](CCNC2CCOCC2)CC1 | 100 to 1000 |
| CNC(=O)C1(NCC[C@H]2CC[C@@H](c3ncc(F)cc3Cl)CC2)CCOCC1 | 1 to 10 |
| CC(=O)N1CCC(NCC[C@H]2CC[C@@H](c3ccc(F)cc3Cl)CC2)CC1 | 10 to 100 |
| CNC(=O)C1(NCC[C@H]2CC[C@@H](c3ccc(F)cc3Cl)CC2)CCOCC1 | < 1 |
| NC(=O)C1(NCC[C@H]2CC[C@H](c3cc(F)ccc3Cl)CC2)CCOCC1 | 10 to 100 |
| Fc1ccc([C@H]2CC[C@@H](CCNC3CCCC3)CC2)c(Cl)c1 | < 1 |
| Cc1cc(F)ccc1[C@H]1CC[C@H](CCNC2CCOCC2)CC1 | 1 to 10 |
| Cc1cnccc1[C@H]1CC[C@H](CCNC2CCOCC2)CC1 | 100 to 1000 |
| Fc1ccc([C@H]2CC[C@@H](CCNC3CCC(F)(F)C3)CC2)c(Cl)c1 (some centres not stated) | < 1 |
| CC1(NCCC2CCC(c3c(F)cccc3Cl)CC2)CCCC1 (configuration not stated) | 10 to 100 |
| CC1(NCCC2CCC(c3ncccc3Cl)CC2)CCOCC1 (configuration not stated) | 100 to 1000 |
| Cc1c(C#N)cccc1[C@H]1CC[C@H](CCNC2CCOCC2)CC1 | 100 to 1000 |
| Fc1cnc(C2CCC(CCNC3(C4CC4)CCOCC3)CC2)c(Cl)c1 (configuration not stated) | 10 to 100 |
| Cc1cnccc1C1CCC(CCNC2CCCCC2)CC1 (configuration not stated) | 100 to 1000 |
| Fc1ccc([C@H]2CC[C@@H](CCNC3CCOCC3)CC2)c(Cl)c1 | < 1 |
| Cc1cc(F)c(F)cc1[C@H]1CC[C@@H](CCNC2(C(N)=O)CCOCC2)CC1 | 10 to 100 |
